This is an account of results in PMC6141003 (Biochimie, 2017).

Experiment [1] has as its target T1, GLUT1 (Mus musculus, UniProt P17809).
T1 sequence (P17809 1-492): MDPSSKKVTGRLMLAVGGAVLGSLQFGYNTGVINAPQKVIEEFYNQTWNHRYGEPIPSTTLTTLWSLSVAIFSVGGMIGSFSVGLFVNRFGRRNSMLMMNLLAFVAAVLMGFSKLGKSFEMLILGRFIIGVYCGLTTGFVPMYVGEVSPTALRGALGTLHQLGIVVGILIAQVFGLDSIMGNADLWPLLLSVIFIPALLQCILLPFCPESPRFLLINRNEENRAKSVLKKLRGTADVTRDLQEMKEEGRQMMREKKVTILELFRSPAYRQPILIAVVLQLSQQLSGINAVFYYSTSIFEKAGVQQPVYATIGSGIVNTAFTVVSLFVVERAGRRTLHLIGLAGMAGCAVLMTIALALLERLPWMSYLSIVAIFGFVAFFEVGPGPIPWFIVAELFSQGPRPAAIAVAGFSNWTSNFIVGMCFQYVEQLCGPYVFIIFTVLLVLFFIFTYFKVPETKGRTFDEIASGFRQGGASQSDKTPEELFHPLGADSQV
Briefly: [3H]-2-deoxyglucose uptake in L929 fibroblasts. The class given is cell-based.

Experiment [2] deals with T1, GLUT1. Briefly: dose-dependent competition of [3H]-2DG uptake in L929 fibroblasts. The class given is cell-based.

In general, IC50 refers to the midpoint of a concentration-inhibition curve. Low readings indicate greater potency in that assay, high ones weaker potency in that assay.

On to `Cn1c(=O)c2c(ncn2C)n(C)c1=O` [caffeine], for which the IC50 on GLUT1 [1] is around 1400 µM.

Turning to `OC[C@H]1OC(O)[C@H](O)[C@@H](O)[C@@H]1O` (some centres unmarked) [glucose], the “dose-dependent competition of [3H]-2DG uptake in L929 fibroblasts” value on GLUT1 [2] is “glucose reduces 2DG uptake in a dose-dependent manner, and that caffeine adds to the inhibitory effects of glucose”.
